Experimental data published in ChEMBL document CHEMBL1201862, “PubChem BioAssay data set” (2004).
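Method: 48-hour compound exposure of cells in 96-well plates, five concentrations, linear interpolation of endpoints. GI50 = concentration required for 50% inhibition of growth.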 Active and inactive are the calls of the source. No stated cut-off is given here; in the data, active = GI50 up to about 1.1 µM and inactive = higher.

Columns and labels:
Assay in all cases: DTP human tumour cell line panel, 48 h
786-0 = tested on: 786-0
A498 = tested on: A498
A549 = tested on: A549
ACHN = tested on: ACHN
BT-549 = tested on: BT-549
CAKI-1 = tested on: CAKI-1
CCRF-CEM = tested on: CCRF-CEM
COLO 205 = tested on: COLO 205
DU-145 = tested on: DU-145
EKVX = tested on: EKVX
HCC 2998 = tested on: HCC 2998
HCT-116 = tested on: HCT-116
HCT-15 = tested on: HCT-15
HL-60 = tested on: HL-60
HOP-92 = tested on: HOP-92
Hs-578T = tested on: Hs-578T
IGROV-1 = tested on: IGROV-1
K562 = tested on: K562
KM12 = tested on: KM12
LOX IMVI = tested on: LOX IMVI
M14 = tested on: M14
MCF7 = tested on: MCF7
MDA-MB-231 = tested on: MDA-MB-231
MDA-MB-435 = tested on: MDA-MB-435
MDA-N = tested on: MDA-N
MOLT-4 = tested on: MOLT-4
Malme-3M = tested on: Malme-3M
NCI-H226 = tested on: NCI-H226
NCI-H460 = tested on: NCI-H460
NCI-H522 = tested on: NCI-H522
NCI/ADR-RES = tested on: NCI/ADR-RES
OVCAR-3 = tested on: OVCAR-3
OVCAR-4 = tested on: OVCAR-4
OVCAR-5 = tested on: OVCAR-5
OVCAR-8 = tested on: OVCAR-8
PC-3 = tested on: PC-3
RPMI-8226 = tested on: RPMI-8226
RXF 393 = tested on: RXF 393
SF-268 = tested on: SF-268
SF-295 = tested on: SF-295
SF-539 = tested on: SF-539
SK-MEL-28 = tested on: SK-MEL-28
SK-MEL-2 = tested on: SK-MEL-2
SK-MEL-5 = tested on: SK-MEL-5
SN12C = tested on: SN12C
SNB-19 = tested on: SNB-19
SNB-75 = tested on: SNB-75
SR = tested on: SR
SW-620 = tested on: SW-620
T47D = tested on: T47D
TK-10 = tested on: TK-10
U-251 = tested on: U-251
UACC-257 = tested on: UACC-257
UACC-62 = tested on: UACC-62
UO-31 = tested on: UO-31
HOP-62 = tested on: HOP-62
HT-29 = tested on: HT-29
NCI-H23 = tested on: NCI-H23
SK-OV-3 = tested on: SK-OV-3

## CC(NNC(=O)c1cc[n+]([BH2-]C#N)cc1)c1ccccc1F (stereo not drawn)
786-0
  GI50: > 100 µM (inactive)
A498
  GI50: 3.4 µM (inactive)
A549
  GI50: > 100 µM (inactive)
ACHN
  GI50: > 100 µM (inactive)
BT-549
  GI50: > 100 µM (inactive)
CAKI-1
  GI50: > 100 µM (inactive)
CCRF-CEM
  GI50: > 100 µM (inactive)
COLO 205
  GI50: > 100 µM (inactive)
DU-145
  GI50: > 100 µM (inactive)
EKVX
  GI50: > 100 µM (inactive)
HCC 2998
  GI50: > 100 µM (inactive)
HCT-116
  GI50: > 100 µM (inactive)
HCT-15
  GI50: > 100 µM
HL-60
  GI50: > 100 µM (inactive)
HOP-92
  GI50: > 100 µM (inactive)
Hs-578T
  GI50: > 100 µM (inactive)
IGROV-1
  GI50: > 100 µM (inactive)
K562
  GI50: > 100 µM (inactive)
KM12
  GI50: > 100 µM (inactive)
LOX IMVI
  GI50: > 100 µM (inactive)
M14
  GI50: > 100 µM (inactive)
MCF7
  GI50: > 100 µM (inactive)
MDA-MB-231
  GI50: > 100 µM (inactive)
MDA-MB-435
  GI50: > 100 µM (inactive)
MDA-N
  GI50: > 100 µM (inactive)
MOLT-4
  GI50: > 100 µM (inactive)
Malme-3M
  GI50: > 100 µM (inactive)
NCI-H226
  GI50: > 100 µM (inactive)
NCI-H460
  GI50: > 100 µM (inactive)
NCI-H522
  GI50: > 100 µM (inactive)
NCI/ADR-RES
  GI50: > 100 µM (inactive)
OVCAR-3
  GI50: > 100 µM (inactive)
OVCAR-4
  GI50: > 100 µM (inactive)
OVCAR-5
  GI50: > 100 µM (inactive)
OVCAR-8
  GI50: > 100 µM (inactive)
PC-3
  GI50: > 100 µM (inactive)
RPMI-8226
  GI50: > 100 µM (inactive)
RXF 393
  GI50: > 100 µM (inactive)
SF-268
  GI50: > 100 µM (inactive)
SF-295
  GI50: > 100 µM (inactive)
SF-539
  GI50: > 100 µM (inactive)
SK-MEL-28
  GI50: > 100 µM (inactive)
SK-MEL-2
  GI50: > 100 µM (inactive)
SK-MEL-5
  GI50: > 100 µM (inactive)
SN12C
  GI50: > 100 µM (inactive)
SNB-19
  GI50: > 100 µM (inactive)
SNB-75
  GI50: > 100 µM (inactive)
SR
  GI50: > 100 µM (inactive)
SW-620
  GI50: > 100 µM (inactive)
T47D
  GI50: > 100 µM (inactive)
TK-10
  GI50: > 100 µM (inactive)
U-251
  GI50: > 100 µM (inactive)
UACC-257
  GI50: > 100 µM (inactive)
UACC-62
  GI50: > 100 µM (inactive)
UO-31
  GI50: > 100 µM (inactive)

## C#CCSc1nc(-c2ccco2)n[nH]1
786-0
  GI50: > 100 µM (inactive)
A498
  GI50: > 100 µM (inactive)
A549
  GI50: > 100 µM (inactive)
ACHN
  GI50: > 100 µM (inactive)
BT-549
  GI50: > 100 µM (inactive)
CAKI-1
  GI50: > 100 µM (inactive)
COLO 205
  GI50: > 100 µM (inactive)
DU-145
  GI50: > 100 µM (inactive)
EKVX
  GI50: > 100 µM (inactive)
HCC 2998
  GI50: > 100 µM (inactive)
HCT-116
  GI50: > 100 µM (inactive)
HCT-15
  GI50: > 100 µM
HL-60
  GI50: > 100 µM (inactive)
HOP-62
  GI50: 49.3 µM (inactive)
HOP-92
  GI50: > 100 µM (inactive)
HT-29
  GI50: > 100 µM (inactive)
Hs-578T
  GI50: > 100 µM (inactive)
IGROV-1
  GI50: 48.5 µM (inactive)
K562
  GI50: > 100 µM (inactive)
KM12
  GI50: > 100 µM (inactive)
LOX IMVI
  GI50: > 100 µM (inactive)
M14
  GI50: > 100 µM (inactive)
MCF7
  GI50: > 100 µM (inactive)
MDA-MB-231
  GI50: > 100 µM (inactive)
MDA-MB-435
  GI50: > 100 µM (inactive)
MDA-N
  GI50: > 100 µM (inactive)
MOLT-4
  GI50: > 100 µM (inactive)
Malme-3M
  GI50: > 100 µM (inactive)
NCI-H226
  GI50: > 100 µM (inactive)
NCI-H23
  GI50: > 100 µM (inactive)
NCI-H460
  GI50: > 100 µM (inactive)
NCI-H522
  GI50: > 100 µM (inactive)
NCI/ADR-RES
  GI50: > 100 µM (inactive)
OVCAR-3
  GI50: > 100 µM (inactive)
OVCAR-4
  GI50: > 100 µM (inactive)
OVCAR-5
  GI50: > 100 µM (inactive)
OVCAR-8
  GI50: > 100 µM (inactive)
PC-3
  GI50: > 100 µM (inactive)
RPMI-8226
  GI50: > 100 µM (inactive)
RXF 393
  GI50: > 100 µM (inactive)
SF-268
  GI50: > 100 µM (inactive)
SF-295
  GI50: > 100 µM (inactive)
SF-539
  GI50: > 100 µM (inactive)
SK-MEL-28
  GI50: > 100 µM (inactive)
SK-MEL-2
  GI50: > 100 µM (inactive)
SK-MEL-5
  GI50: > 100 µM (inactive)
SK-OV-3
  GI50: > 100 µM (inactive)
SN12C
  GI50: > 100 µM (inactive)
SNB-19
  GI50: > 100 µM (inactive)
SNB-75
  GI50: > 100 µM (inactive)
SR
  GI50: > 100 µM (inactive)
SW-620
  GI50: > 100 µM (inactive)
T47D
  GI50: > 100 µM (inactive)
TK-10
  GI50: > 100 µM (inactive)
U-251
  GI50: > 100 µM (inactive)
UACC-257
  GI50: > 100 µM (inactive)
UACC-62
  GI50: > 100 µM (inactive)
UO-31
  GI50: 17.2 µM (inactive)
